Source: article PMC9680624 (RSC Advances, 2022)
≈ marks a conversion by molar mass, not a printed value.

Columns and labels:
[1] = tested on: PC3; experiment: In vitro anti-proliferative activity, MTT assay; type: cell-based; details: Homo sapiens, PC-3, 24 h, read-out: In vitro cytotoxicity IC50 PC3
[2] = tested on: HepG-2; experiment: In vitro anti-proliferative activity, MTT assay; type: cell-based; details: Homo sapiens, HepG2, 24 h, read-out: In vitro cytotoxicity IC50 HepG-2
[3] = tested on: MCF-7; experiment: In vitro anti-proliferative activity, MTT assay; type: cell-based; details: Homo sapiens, MCF7, 24 h, read-out: In vitro cytotoxicity IC50 MCF-7
[4] = tested on: caspase-8; experiment: Caspase-8 level in HepG-2 cell supernatant, ELISA; type: cell-based, human; details: for increase of caspase-8 level: HepG-2 cells, versus control cells; for CASPASE-8 level: HepG-2 supernatant, ELISA, 10 μM, 72 h, control 1.08
[5] = tested on: TNF-α; experiment: TNF-α level in HepG-2 cell supernatant, ELISA; type: cell-based, human; details: HepG-2 supernatant, 10 μM, 72 h, control 162.5
[6] = tested on: VEGF; experiment: VEGF level in HepG-2 cell supernatant, ELISA; type: cell-based, human; details: HepG-2 supernatant, 10 μM, 72 h, control 432.5
[7] = tested on: NF-κB P65; experiment: NF-κB P65 level in HepG-2 cell lysate, ELISA; type: cell-based, human; details: 72 h, control 278.1
[8] = Cytotoxicity against Vero cells, MTT assay; type: cell-based; details: African green monkey, Vero cells (normal, non-cancerous cell line)
[9] = tested on: Vero cells; experiment: Cytotoxicity against Vero cells, MTT assay; type: cell-based; details: for Selectivity index (SI) HepG-2: SI = cytotoxicity against Vero cells/cytotoxicity against HepG-2 cell line; for Selectivity index (SI) PC3: SI = cytotoxicity against Vero cells/cytotoxicity against PC3 cell line

| SMILES | IC50 [1] [µg/mL] | IC50 [2] [µg/mL] | IC50 [3] [µg/mL] | increase of caspase-8 level [4] | CASPASE-8 level [4] [ng mL^−1] | TNF-α level [5] [pg/mL] | VEGF level [6] [pg/mL] | NFκB P65 level [7] [pg/mL] | IC50 [8] [µg/mL] | Selectivity index (SI) HepG-2 [9] | Selectivity index (SI) MCF-7 ([9]; SI = cytotoxicity against Vero cells/cytotoxicity against MCF-7 cell line) | Selectivity index (SI) PC3 [9] |
| --- | --- | --- | --- | --- | --- | --- | --- | --- | --- | --- | --- | --- |
| Fc1ccc(Nc2nc(Cl)nc3ccccc23)cc1Cl [Compound 6, 2-Chloro-N-(3-chloro-4-fluorophenyl)quinazolin-4-amine] | 85 ± 4.7 (≈ 276 µM) | 74.8 ± 4.1 (≈ 243 µM) | 81.5 ± 4.2 (≈ 265 µM) | – | – | – | – | – | – | – | – | – |
| CNc1nc(Nc2ccc(F)c(Cl)c2)c2ccccc2n1 [Compound 7a, N ^4-(3-Chloro-4-fluorophenyl)-N^2-methylquinazoline-2,4-diamine] | 47.2 ± 2.8 (≈ 156 µM) | 40.5 ± 2.8 (≈ 134 µM) | 28.1 ± 2.1 (≈ 92.9 µM) | – | – | – | – | – | – | – | – | – |
| CCNc1nc(Nc2ccc(F)c(Cl)c2)c2ccccc2n1 [Compound 7b, N ^4-(3-Chloro-4-fluorophenyl)-N^2-ethylquinazoline-2,4-diamine] | 15.5 ± 1.3 (≈ 48.9 µM) | 11.7 ± 0.8 (≈ 36.9 µM) | 9.45 ± 0.9 (≈ 29.8 µM) | threefold increase | 3.2 | 79.3 | 218.5 | 113.7 | 163.6 ± 1.12 (≈ 516 µM) | 13.78 | 17.04 | 10.40 |
| Fc1ccc(Nc2nc(Cl)nc3cccc(Cl)c23)cc1Cl [Compound 11a, 2,5-Dichloro-N-(3-chloro-4-fluorophenyl)quinazolin-4-amine] | 91.3 ± 4.9 (≈ 266 µM) | 77.2 ± 4.2 (≈ 225 µM) | 86.1 ± 4.4 (≈ 251 µM) | – | – | – | – | – | – | – | – | – |
| Fc1ccc(Nc2nc(Cl)nc3ccc(Cl)cc23)cc1Cl [Compound 11b, 2,6-Dichloro-N-(3-chloro-4-fluorophenyl)quinazolin-4-amine] | 51.2 ± 3.5 (≈ 149 µM) | 38.7 ± 2.8 (≈ 113 µM) | 45.9 ± 3 (≈ 134 µM) | – | – | – | – | – | – | – | – | – |
| O=C1CCC(Nc2nc(Cl)nc3cccc(Cl)c23)C(=O)N1 (stereo not shown) [Compound 13a, 3-((2,5-Dichloroquinazolin-4-yl)amino)piperidine-2,6-dione] | 54.3 ± 3 (≈ 167 µM) | 46.3 ± 3.1 (≈ 142 µM) | 35.3 ± 2.4 (≈ 109 µM) | – | – | – | – | – | – | – | – | – |
| O=C1CCC(Nc2nc(Cl)nc3ccc(Cl)cc23)C(=O)N1 (stereo not shown) [Compound 13b, 3-((2,6-Dichloroquinazolin-4-yl)amino)piperidine-2,6-dione] | 38.4 ± 3.1 (≈ 118 µM) | 59 ± 3.3 (≈ 181 µM) | 29.3 ± 2.3 (≈ 90.2 µM) | – | – | – | – | – | – | – | – | – |
| NC(=O)NNc1nc(Cl)nc2cccc(Cl)c12 [Compound 15a, 2-(2,5-Dichloroquinazolin-4-yl)hydrazine-1-carboxamide] | 26.1 ± 2 (≈ 95.8 µM) | 24.5 ± 2 (≈ 90.1 µM) | 17.3 ± 1.3 (≈ 63.7 µM) | – | – | – | – | – | – | – | – | – |
| NC(=O)NNc1nc(Cl)nc2ccc(Cl)cc12 [Compound 15b, 2-(2,6-Dichloroquinazolin-4-yl)hydrazine-1-carboxamide] | 13.8 ± 1.2 (≈ 50.7 µM) | 16.2 ± 1.4 (≈ 59.5 µM) | 9.87 ± 0.9 (≈ 36.3 µM) | – | – | – | – | – | – | – | – | – |
| Cc1ccc(S(=O)(=O)NNc2nc(Cl)nc3cccc(Cl)c23)cc1 [Compound 19a, N′-(2,5-Dichloroquinazolin-4-yl)-4-methylbenzenesulfonohydrazide] | 21.5 ± 1.6 (≈ 56 µM) | 19.1 ± 1.5 (≈ 49.8 µM) | 12.8 ± 1 (≈ 33.3 µM) | – | – | – | – | – | – | – | – | – |
| O=S(=O)(NNc1nc(Cl)nc2cccc(Cl)c12)c1ccc(F)cc1 [Compound 19b, N′-(2,5-Dichloroquinazolin-4-yl)-4-fluorobenzenesulfonohydrazide] | 32.7 ± 2.3 (≈ 84.5 µM) | 28.9 ± 2.2 (≈ 74.7 µM) | 20.5 ± 1.5 (≈ 52.9 µM) | – | – | – | – | – | – | – | – | – |
| Cc1ccc(S(=O)(=O)NNc2nnc(Cl)c3ccccc23)cc1 [Compound 24a, N′-(4-Chlorophthalazin-1-yl)-4-methylbenzenesulfonohydrazide] | 8.63 ± 0.6 (≈ 24.7 µM) | 3.87 ± 0.2 (≈ 11.1 µM) | 6.07 ± 0.7 (≈ 17.4 µM) | – | – | – | – | – | – | – | – | – |
| O=S(=O)(NNc1nnc(Cl)c2ccccc12)c1ccc(F)cc1 [Compound 24b, N′-(4-Chlorophthalazin-1-yl)-4-fluorobenzenesulfonohydrazide] | 4.11 ± 0.3 (≈ 11.7 µM) | 2.51 ± 0.1 (≈ 7.11 µM) | 5.8 ± 0.4 (≈ 16.4 µM) | about 7 folds | 6.9 | 82.5 | 185.3 | 76.5 | 161.1 ± 1.42 (≈ 457 µM) | 65.18 | – | 39.80 |
| O=S(=O)(NNc1nnc(Cl)c2ccccc12)c1ccccc1 [Compound 24c, N′-(4-Chlorophthalazin-1-yl)benzenesulfonohydrazide] | 14.9 ± 1.1 (≈ 44.6 µM) | 7.96 ± 0.5 (≈ 23.8 µM) | 8.12 ± 0.7 (≈ 24.3 µM) | – | – | – | – | – | – | – | – | – |
| O=C1CCC(N2C(=O)c3ccccc3C2=O)C(=O)N1 (stereo not shown) [Thalidomide, thalidomide, reference compound] | 16.9 ± 0.7 (≈ 65.3 µM) | 11.3 ± 0.54 (≈ 43.6 µM) | 14.6 ± 0.57 (≈ 56.5 µM) | 8 folds | 8.3 | 53.1 | 153.2 | 110.5 | – | – | – | – |
